System: patients with type 2 diabetes at high vascular risk
Experiment: Cardiovascular and Renal Outcomes Trial: linagliptin 5 mg once daily vs placebo on top of standard of care
Type: in vivo
Settings: for Hazard ratio for hospitalised heart failure: vs placebo
Protocol: The effect of linagliptin on cardiovascular risk in adult patients with type 2 diabetes mellitus and with increased CV risk evidenced by a history of established macrovascular or renal disease (e.g. as defined herein) was evaluated in a multi-center, multi-national, randomized, double-blind parallel group trial. The trial compared the risk of experiencing a major adverse cardiovascular event (MACE) between linagliptin and placebo when these were added to and used concomitantly with standard of care treatments for diabetes (HbA1c), cardiovascular risk factors and renal disease.
The primary endpoint in this trial was the time to first occurrence of three point (3P) MACE. A major adverse cardiac event was defined as a cardiovascular death or a nonfatal myocardial infarction (MI) or a nonfatal stroke. The statistical analysis plan tested for non-inferiority for the occurrence of (3P) MACE. […] The secondary endpoint was a renal composite, defined as renal death or sustained end stage renal disease or sustained decrease of 40% or more in eGFR.
Type 2 diabetes patient with insufficient glycemic control (naïve or pre-treated with any antidiabetic background medication, excluding treatment with GLP-1 receptor agonists, DPP-4inhibitors or SGLT-2 inhibitors if ≥consecutive 7 days, e.g. having HbA1c 6.5-10%), and high risk of cardiovascular events, e.g. defined by: • albuminuria (micro or macro) and previous macrovascular disease: e.g. defined according to Condition I as indicated below; • and/or • impaired renal function: e.g. as defined according to Condition II as indicated below;
Background and aims: People with type 2 diabetes (T2D) are at increased risk for hospitalization for heart failure (hHF), particularly in the setting of concomitant cardiovascular (CV) and/or kidney disease. […] Here we present analyses of HF outcomes with the DPP-4 inhibitor linagliptin (LINA) vs. placebo (PBO) from a Cardiovascular and Renal Outcomes Trial assessing cardiovascular safety and renal microvascular outcome in patients with type 2 diabetes at high vascular risk, a large CV outcomes trial that enrolled participants with T2D at high risk for hHF due to concomitant CV and/or chronic kidney disease. Materials and methods: People with T2D and concomitant CV and/or kidney disease were randomized to receive LINA 5 mg, or PBO once daily (1:1), on top of standard of care. All hHF, CV outcomes, and deaths were centrally adjudicated, with individual and composite HF-related outcomes analyses comparing LINA vs. placebo. Investigator-reported HF-related adverse events, whether or not confirmed by adjudication, were also analyzed. A Cox proportional hazards model adjusting for region and history of HF was used for analyses of first events. Recurrent hHF events were analyzed using a negative binomial model.
Methods: The present Cardiovascular and Renal Outcomes Trial randomized people with T2D and i) concomitant CV disease with UACR >30 mg/g or ii) prevalent CKD (i.e. GFR <45 ml/min/1.73m2 and/or UACR >200 mg/g) to receive the DPP-4 inhibitor linagliptin (5 mg) or placebo once daily in a double-blind fashion. The primary CV endpoint was 3P-MACE, with a key secondary kidney endpoint (adjudicated ESKD, renal death, or sustained ≥40% decrease in eGFR from baseline) and other renal outcomes (including albuminuria and eGFR slope) also assessed. Subgroups were assessed by baseline kidney function (eGFR ≥/<45 ml/min/1.73m2and eGFR ≥/<30, 45 or 60 ml/min/1.73m2).
Adults with type 2 diabetes, HbA1c 6.5-10.0% inclusive, and high CV risk were eligible for inclusion. […] Macrovascular disease eligibility criteria was based on documented and confirmed history of myocardial infarction, coronary artery disease, stroke, carotid artery disease, or peripheral artery disease. Participants with end-stage kidney disease (ESKD), defined as eGFR <15 or requiring maintenance dialysis, were excluded.

[1] = CKD prognosis by KDIGO Very high
[2] = Calcium channel blockers (CCB) No
[3] = Calcium channel blockers (CCB) Yes
[4] = Cardiorenal risk: Albuminuria and previous macrovascular disease plus eGFR 45-75 mL/min/1.73 m^2 with an UACR >200 mg/g
[5] = Cardiorenal risk: Albuminuria and previous macrovascular disease plus renal impairment (eGFR 15-<45 mL/min/1.73 m^2 with any UACR mg/g)
[6] = Cardiorenal risk: Albuminuria and previous macrovascular disease without eGFR>45 mL/min/1.73 m2
[7] = Duration of type 2 diabetes >5 to <10 years
[8] = Duration of type 2 diabetes ≤5 years

## CC#CCn1c(N2CCC[C@@H](N)C2)nc2c1c(=O)n(Cc1nc(C)c3ccccc3n1)c(=O)n2C [Linagliptin, 1-[(4-methyl-quinazolin-2-yl)methyl]-3-methyl-7-(2-butyn-1-yl)-8-(3-(R)-amino-piperidin-1-yl)-xanthine]
Body mass index ≥30 kg/m^2
  3-point MACE: hazard ratio vs placebo: 1.06
  3-point MACE: patients with event/patients analyzed: 243/1978
  Key secondary kidney outcome: hazard ratio vs placebo: 0.96
  Key secondary kidney outcome: patients with event/patients analyzed: 165/1978
  Patients with event/patients analysed, hospitalised heart failure: 131/1978
  Hazard ratio for hospitalised heart failure: 0.86
CKD prognosis by KDIGO High
  3-point MACE: hazard ratio vs placebo: 1.05
  3-point MACE: patients with event/patients analyzed: 111/995
  Key secondary kidney outcome: patients with event/patients analyzed: 57/995
  Patients with event/patients analysed, hospitalised heart failure: 45/995
CKD prognosis by KDIGO Low
  3-point MACE: hazard ratio vs placebo: 1.13
  3-point MACE: patients with event/patients analyzed: 11/232
  Key secondary kidney outcome: patients with event/patients analyzed: 8/232
  Patients with event/patients analysed, hospitalised heart failure: 2/232
CKD prognosis by KDIGO Medium
  3-point MACE: hazard ratio vs placebo: 0.89
  3-point MACE: patients with event/patients analyzed: 61/766
  Key secondary kidney outcome: patients with event/patients analyzed: 14/766
  Patients with event/patients analysed, hospitalised heart failure: 18/766
[1]
  3-point MACE: hazard ratio vs placebo: 1.04
  3-point MACE: patients with event/patients analyzed: 250/1499
  Key secondary kidney outcome: patients with event/patients analyzed: 248/1499
  Patients with event/patients analysed, hospitalised heart failure: 144/1499
[2]
  Patients with event/patients analysed, hospitalised heart failure: 113/2061
  Hazard ratio for hospitalised heart failure: 0.86
[3]
  Patients with event/patients analysed, hospitalised heart failure: 96/1433
  Hazard ratio for hospitalised heart failure: 0.94
Calcium channel blockers No
  3-point MACE: hazard ratio vs placebo: 0.91
  3-point MACE: patients with event/patients analyzed: 239/2061
  Key secondary kidney outcome: hazard ratio vs placebo: 1.03
  Key secondary kidney outcome: patients with event/patients analyzed: 155/2061
Calcium channel blockers Yes
  3-point MACE: hazard ratio vs placebo: 1.21
  3-point MACE: patients with event/patients analyzed: 195/1433
  Key secondary kidney outcome: hazard ratio vs placebo: 1.05
  Key secondary kidney outcome: patients with event/patients analyzed: 172/2860
Cardiorenal risk Cat A
  3-point MACE: hazard ratio vs placebo: 0.97
  3-point MACE: patients with event/patients analyzed: 117/1361
  Key secondary kidney outcome: hazard ratio vs placebo: 1.22
  Key secondary kidney outcome: patients with event/patients analyzed: 38/1361
Cardiorenal risk Cat B
  3-point MACE: hazard ratio vs placebo: 0.92
  3-point MACE: patients with event/patients analyzed: 86/394
  Key secondary kidney outcome: hazard ratio vs placebo: 0.79
  Key secondary kidney outcome: patients with event/patients analyzed: 51/394
Cardiorenal risk Cat C
  3-point MACE: hazard ratio vs placebo: 0.76
  3-point MACE: patients with event/patients analyzed: 33/253
  Key secondary kidney outcome: hazard ratio vs placebo: 1.53
  Key secondary kidney outcome: patients with event/patients analyzed: 23/253
Cardiorenal risk Cat D
  3-point MACE: hazard ratio vs placebo: 1.12
  3-point MACE: patients with event/patients analyzed: 163/1153
  Key secondary kidney outcome: hazard ratio vs placebo: 1.01
  Key secondary kidney outcome: patients with event/patients analyzed: 180/1153
Cardiorenal risk Cat E
  3-point MACE: hazard ratio vs placebo: 1.13
  3-point MACE: patients with event/patients analyzed: 32/309
  Key secondary kidney outcome: hazard ratio vs placebo: 1.04
  Key secondary kidney outcome: patients with event/patients analyzed: 35/309
[4]
  Patients with event/patients analysed, hospitalised heart failure: 67/647
  Hazard ratio for hospitalised heart failure: 0.81
[5]
  Patients with event/patients analysed, hospitalised heart failure: 95/14612
  Hazard ratio for hospitalised heart failure: 0.86
[6]
  Patients with event/patients analysed, hospitalised heart failure: 46/1361
  Hazard ratio for hospitalised heart failure: 1.19
Diuretics No
  3-point MACE: hazard ratio vs placebo: 1.15
  3-point MACE: patients with event/patients analyzed: 159/1602
  Key secondary kidney outcome: hazard ratio vs placebo: 1.06
  Key secondary kidney outcome: patients with event/patients analyzed: 129/1602
  Patients with event/patients analysed, hospitalised heart failure: 53/1602
  Hazard ratio for hospitalised heart failure: 1.26
Diuretics Yes
  3-point MACE: hazard ratio vs placebo: 0.97
  3-point MACE: patients with event/patients analyzed: 275/1892
  Key secondary kidney outcome: hazard ratio vs placebo: 1.04
  Key secondary kidney outcome: patients with event/patients analyzed: 198/1892
  Patients with event/patients analysed, hospitalised heart failure: 156/1892
  Hazard ratio for hospitalised heart failure: 0.83
[7]
  3-point MACE: hazard ratio vs placebo: 1.01
  3-point MACE: patients with event/patients analyzed: 73/696
  Key secondary kidney outcome: hazard ratio vs placebo: 0.94
  Key secondary kidney outcome: patients with event/patients analyzed: 56/699
  Patients with event/patients analysed, hospitalised heart failure: 42/696
  Hazard ratio for hospitalised heart failure: 0.96
[8]
  3-point MACE: hazard ratio vs placebo: 0.98
  3-point MACE: patients with event/patients analyzed: 45/521
  Key secondary kidney outcome: hazard ratio vs placebo: 1.97
  Key secondary kidney outcome: patients with event/patients analyzed: 41/521
  Patients with event/patients analysed, hospitalised heart failure: 18/521
  Hazard ratio for hospitalised heart failure: 0.82
Duration of type 2 diabetes ≥10 years
  3-point MACE: hazard ratio vs placebo: 1.03
